Columns and labels:
CCRF-CEM = experiment: Tumor cell proliferation inhibition (CellTiter-Meiluncell Luminescent Cell Viability Assay), CCRF-CEM; settings: Homo sapiens, 96 h, read-out: inhibitory activity (IC50, nM) against tumor cells proliferation, CCRF-CEM
[1] = tested on: Human breast cancer cells (MDA-MB-231); experiment: Tumor cell proliferation inhibition (CellTiter-Meiluncell Luminescent Cell Viability Assay), MDA-MB-231; settings: MDA-MB-231, 96 h, read-out: inhibitory activity (IC50, nM) against tumor cells proliferation, MDA-MB-231
CAL-62 = experiment: Tumor cell proliferation inhibition (CellTiter-Meiluncell Luminescent Cell Viability Assay), CAL-62; settings: Homo sapiens, CAL-62, 96 h, read-out: inhibitory activity (IC50, nM) against tumor cells proliferation, CAL-62
WEE1 = molecular target: T1, WEE1 (Homo sapiens, UniProt P30291+Q96SW2); experiment: Western-blot assay of substrate protein degradation in hPBMCs, WEE1; assay type: cell-based; settings: 24 hours of compound treatment, compounds tested at 50 nM and 500 nM (concentration of the table not stated)
T1 construct: endogenous in cells; host or cells: hPBMCs (Milecell Biotechnologies)
T1 sequence (P30291 whole entry): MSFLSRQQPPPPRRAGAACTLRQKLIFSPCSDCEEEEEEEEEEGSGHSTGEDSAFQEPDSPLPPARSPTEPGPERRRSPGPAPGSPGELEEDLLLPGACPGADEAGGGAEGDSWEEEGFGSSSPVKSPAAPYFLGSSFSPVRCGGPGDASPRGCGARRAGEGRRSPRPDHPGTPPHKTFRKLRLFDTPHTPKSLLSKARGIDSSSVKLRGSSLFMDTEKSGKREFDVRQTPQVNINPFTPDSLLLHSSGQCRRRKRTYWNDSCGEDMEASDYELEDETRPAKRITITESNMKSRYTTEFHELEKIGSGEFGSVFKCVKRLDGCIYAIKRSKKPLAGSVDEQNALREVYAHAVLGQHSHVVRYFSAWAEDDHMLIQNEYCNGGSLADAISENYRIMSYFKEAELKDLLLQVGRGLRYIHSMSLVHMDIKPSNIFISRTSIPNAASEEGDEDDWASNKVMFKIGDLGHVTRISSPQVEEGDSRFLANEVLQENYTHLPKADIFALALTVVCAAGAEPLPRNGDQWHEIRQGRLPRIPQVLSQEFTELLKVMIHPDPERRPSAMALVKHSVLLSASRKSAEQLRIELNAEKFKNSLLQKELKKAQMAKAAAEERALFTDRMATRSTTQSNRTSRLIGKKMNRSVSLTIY
T1 sequence (Q96SW2 whole entry): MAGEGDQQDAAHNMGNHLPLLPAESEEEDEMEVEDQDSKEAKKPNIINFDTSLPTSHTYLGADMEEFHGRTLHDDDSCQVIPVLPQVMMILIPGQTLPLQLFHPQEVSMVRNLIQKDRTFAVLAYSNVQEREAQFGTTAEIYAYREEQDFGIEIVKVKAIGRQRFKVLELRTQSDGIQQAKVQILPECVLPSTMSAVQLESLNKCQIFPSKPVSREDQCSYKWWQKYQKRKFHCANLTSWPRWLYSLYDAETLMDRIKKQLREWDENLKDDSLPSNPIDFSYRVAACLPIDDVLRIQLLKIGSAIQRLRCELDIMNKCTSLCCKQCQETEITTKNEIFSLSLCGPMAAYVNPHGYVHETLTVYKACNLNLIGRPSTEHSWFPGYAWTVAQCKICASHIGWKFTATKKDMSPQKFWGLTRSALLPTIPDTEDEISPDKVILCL
T1 sequence (Q16531 whole entry partner): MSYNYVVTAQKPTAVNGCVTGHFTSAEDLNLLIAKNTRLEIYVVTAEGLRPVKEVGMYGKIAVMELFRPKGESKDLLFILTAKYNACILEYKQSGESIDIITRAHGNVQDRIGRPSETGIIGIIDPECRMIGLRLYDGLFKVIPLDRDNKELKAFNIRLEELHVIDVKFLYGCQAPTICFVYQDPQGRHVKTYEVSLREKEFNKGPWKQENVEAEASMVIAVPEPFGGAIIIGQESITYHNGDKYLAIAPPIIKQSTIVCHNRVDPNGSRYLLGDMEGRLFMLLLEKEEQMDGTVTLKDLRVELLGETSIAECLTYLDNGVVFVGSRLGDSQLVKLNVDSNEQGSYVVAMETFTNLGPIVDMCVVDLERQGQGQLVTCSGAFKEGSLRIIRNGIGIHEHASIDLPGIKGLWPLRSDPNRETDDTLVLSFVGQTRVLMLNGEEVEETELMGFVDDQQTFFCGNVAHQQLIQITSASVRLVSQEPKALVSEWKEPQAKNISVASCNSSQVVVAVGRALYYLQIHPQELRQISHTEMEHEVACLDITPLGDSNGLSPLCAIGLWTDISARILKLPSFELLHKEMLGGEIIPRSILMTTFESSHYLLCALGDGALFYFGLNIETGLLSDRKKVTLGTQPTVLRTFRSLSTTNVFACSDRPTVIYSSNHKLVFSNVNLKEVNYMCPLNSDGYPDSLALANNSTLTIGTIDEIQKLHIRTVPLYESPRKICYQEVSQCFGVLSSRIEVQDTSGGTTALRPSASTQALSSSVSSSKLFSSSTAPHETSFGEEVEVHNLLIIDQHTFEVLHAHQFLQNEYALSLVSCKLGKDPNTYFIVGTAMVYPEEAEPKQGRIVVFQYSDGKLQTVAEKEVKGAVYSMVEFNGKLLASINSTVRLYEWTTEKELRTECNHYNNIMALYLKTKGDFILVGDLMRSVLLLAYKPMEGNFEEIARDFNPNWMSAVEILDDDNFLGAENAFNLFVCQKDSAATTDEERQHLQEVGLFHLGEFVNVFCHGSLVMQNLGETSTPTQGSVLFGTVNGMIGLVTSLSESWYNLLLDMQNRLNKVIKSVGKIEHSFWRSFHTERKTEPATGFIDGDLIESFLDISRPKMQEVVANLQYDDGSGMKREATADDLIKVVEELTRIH

IKZF1 = molecular target: T2, IKZF1 (Homo sapiens, UniProt Q13422+Q96SW2); experiment: Western-blot assay of substrate protein degradation in hPBMCs, IKZF1; assay type: cell-based; settings: 24 hours of compound treatment, compounds tested at 50 nM and 500 nM (concentration of the table not stated)
T2 construct: endogenous in cells; host or cells: hPBMCs (Milecell Biotechnologies)

Vcap = experiment: Tumor cell proliferation inhibition (CellTiter-Meiluncell Luminescent Cell Viability Assay), Vcap; settings: Homo sapiens, 96 h, read-out: inhibitory activity (IC50, nM) against tumor cells proliferation, Vcap
CK1α = molecular target: T3, CK1α (Homo sapiens, UniProt P48729+Q96SW2); experiment: Western-blot assay of substrate protein degradation in hPBMCs, CK1α; assay type: cell-based; settings: 24 hours of compound treatment, compounds tested at 50 nM and 500 nM (concentration of the table not stated)
T3 construct: endogenous in cells; host or cells: hPBMCs (Milecell Biotechnologies)
T3 sequence (P48729 whole entry): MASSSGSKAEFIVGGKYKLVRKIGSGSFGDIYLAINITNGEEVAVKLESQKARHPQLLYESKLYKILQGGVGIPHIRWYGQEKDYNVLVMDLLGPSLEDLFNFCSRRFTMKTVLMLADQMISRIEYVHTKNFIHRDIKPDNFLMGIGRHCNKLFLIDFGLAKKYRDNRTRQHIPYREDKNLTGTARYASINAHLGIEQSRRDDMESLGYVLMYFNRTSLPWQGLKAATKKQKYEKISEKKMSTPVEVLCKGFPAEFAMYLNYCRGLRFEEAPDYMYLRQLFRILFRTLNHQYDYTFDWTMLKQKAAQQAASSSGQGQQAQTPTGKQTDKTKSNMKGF
T3 sequence (Q96SW2 whole entry): as the sequence (Q96SW2 whole entry) above
T3 sequence (Q16531 whole entry partner): as the sequence (Q16531 whole entry partner) above

GSPT1 = molecular target: T4, GSPT1 (Homo sapiens, UniProt P15170+Q96SW2); experiment: Western-blot assay of substrate protein degradation in hPBMCs, GSPT1; assay type: cell-based; settings: 24 hours of compound treatment, compounds tested at 50 nM and 500 nM (concentration of the table not stated)
T4 construct: endogenous in cells; host or cells: hPBMCs (Milecell Biotechnologies)
T4 sequence (P15170 whole entry): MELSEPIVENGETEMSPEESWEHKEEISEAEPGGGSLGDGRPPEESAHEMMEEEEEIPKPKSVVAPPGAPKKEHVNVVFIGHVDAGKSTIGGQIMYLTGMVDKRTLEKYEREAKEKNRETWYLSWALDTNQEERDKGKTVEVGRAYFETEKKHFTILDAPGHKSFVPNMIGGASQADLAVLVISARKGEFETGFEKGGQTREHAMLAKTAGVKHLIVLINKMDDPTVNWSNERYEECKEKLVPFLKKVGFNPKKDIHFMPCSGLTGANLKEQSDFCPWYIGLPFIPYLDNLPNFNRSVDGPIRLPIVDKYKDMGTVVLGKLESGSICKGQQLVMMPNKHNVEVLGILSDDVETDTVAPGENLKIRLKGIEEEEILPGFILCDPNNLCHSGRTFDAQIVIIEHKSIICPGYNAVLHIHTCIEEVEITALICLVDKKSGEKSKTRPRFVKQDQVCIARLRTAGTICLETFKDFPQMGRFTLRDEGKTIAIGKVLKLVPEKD
T4 sequence (Q96SW2 whole entry): as the sequence (Q96SW2 whole entry) above
T4 sequence (Q16531 whole entry partner): as the sequence (Q16531 whole entry partner) above

NCI-H1975 = experiment: Tumor cell proliferation inhibition (CellTiter-Meiluncell Luminescent Cell Viability Assay), NCI-H1975; settings: Homo sapiens, NCI-H1975, 96 h, read-out: inhibitory activity (IC50, nM) against tumor cells proliferation, H1975
Experimental: (§1) The tumor cells used herein were cultured in a cell culture medium listed in table 2 at 37°C in an incubator with 5% CO2. Prior to experimentation, all cell lines used were correctly identified by STR profiling, and tested negative for mycoplasma contamination using a mycoplasma detection kit through routine screenings.
(§2) On the following day, the test compounds of the present disclosure were subjected to serial dilution. […] Subsequently, 0.5 µL of the test compound dilution was transferred into the 96-well plate containing the cells, with each well containing 100 µL of cell culture medium. […] Into the 96-well plate, the diluted test compounds and corresponding detection reagents were added, resulting in final test compound concentrations of 500 nM and 10 nM, respectively. The experimental procedure is described below using the diluted 2 µM test compound as an example.
(§3) After the cells were treated with the compounds of the present disclosure for a specified period (the treatment durations were shown in Table 3), the cell viability assay reagent was added to the culture medium according to the kit's instructions to determine cell viability. […] All controls were treated using the same procedure as the compounds of the present disclosure. The growth inhibition curves for the compounds of the present disclosure were plotted using Prism GraphPad software, and the IC50 values were calculated therefrom.

MM.1R = experiment: Tumor cell proliferation inhibition (CellTiter-Meiluncell Luminescent Cell Viability Assay), MM.1R; settings: Homo sapiens, 96 h, read-out: inhibitory activity (IC50, nM) against tumor cells proliferation, MM.1R
IKZF2 = molecular target: T5, IKZF2 (Homo sapiens, UniProt Q96SW2+Q9UKS7); experiment: Western-blot assay of substrate protein degradation in hPBMCs, IKZF2; assay type: cell-based; settings: 24 hours of compound treatment, compounds tested at 50 nM and 500 nM (concentration of the table not stated)
T5 construct: endogenous in cells; host or cells: hPBMCs (Milecell Biotechnologies)
T5 sequence (Q9UKS7 whole entry): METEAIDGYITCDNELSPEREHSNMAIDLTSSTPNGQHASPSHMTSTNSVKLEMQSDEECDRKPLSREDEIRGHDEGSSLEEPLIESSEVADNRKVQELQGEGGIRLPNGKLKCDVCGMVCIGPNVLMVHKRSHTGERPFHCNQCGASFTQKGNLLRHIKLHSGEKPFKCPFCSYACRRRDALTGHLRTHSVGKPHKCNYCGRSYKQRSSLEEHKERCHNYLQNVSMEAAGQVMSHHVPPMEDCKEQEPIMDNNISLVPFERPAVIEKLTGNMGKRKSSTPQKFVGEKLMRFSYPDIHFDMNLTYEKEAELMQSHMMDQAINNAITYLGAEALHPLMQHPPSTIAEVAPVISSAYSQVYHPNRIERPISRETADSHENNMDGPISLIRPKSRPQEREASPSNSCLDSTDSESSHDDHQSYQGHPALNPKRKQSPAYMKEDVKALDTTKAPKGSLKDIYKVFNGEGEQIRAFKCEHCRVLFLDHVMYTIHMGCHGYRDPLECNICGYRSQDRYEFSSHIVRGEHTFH
T5 sequence (Q96SW2 whole entry): as the sequence (Q96SW2 whole entry) above
T5 sequence (Q16531 whole entry partner): as the sequence (Q16531 whole entry partner) above

SW620 = experiment: Tumor cell proliferation inhibition (CellTiter-Meiluncell Luminescent Cell Viability Assay), SW620; settings: Homo sapiens, SW-620, 96 h, read-out: inhibitory activity (IC50, nM) against tumor cells proliferation, SW620
SR = experiment: Tumor cell proliferation inhibition (CellTiter-Meiluncell Luminescent Cell Viability Assay), SR; settings: Homo sapiens, 96 h, read-out: inhibitory activity (IC50, nM) against tumor cells proliferation, SR
IKZF3 = molecular target: T6, IKZF3 (Homo sapiens, UniProt Q96SW2+Q9UKT9); experiment: Western-blot assay of substrate protein degradation in hPBMCs, IKZF3; assay type: cell-based; settings: 24 hours of compound treatment, compounds tested at 50 nM and 500 nM (concentration of the table not stated)
T6 construct: endogenous in cells; host or cells: hPBMCs (Milecell Biotechnologies)
T6 sequence (Q9UKT9 whole entry): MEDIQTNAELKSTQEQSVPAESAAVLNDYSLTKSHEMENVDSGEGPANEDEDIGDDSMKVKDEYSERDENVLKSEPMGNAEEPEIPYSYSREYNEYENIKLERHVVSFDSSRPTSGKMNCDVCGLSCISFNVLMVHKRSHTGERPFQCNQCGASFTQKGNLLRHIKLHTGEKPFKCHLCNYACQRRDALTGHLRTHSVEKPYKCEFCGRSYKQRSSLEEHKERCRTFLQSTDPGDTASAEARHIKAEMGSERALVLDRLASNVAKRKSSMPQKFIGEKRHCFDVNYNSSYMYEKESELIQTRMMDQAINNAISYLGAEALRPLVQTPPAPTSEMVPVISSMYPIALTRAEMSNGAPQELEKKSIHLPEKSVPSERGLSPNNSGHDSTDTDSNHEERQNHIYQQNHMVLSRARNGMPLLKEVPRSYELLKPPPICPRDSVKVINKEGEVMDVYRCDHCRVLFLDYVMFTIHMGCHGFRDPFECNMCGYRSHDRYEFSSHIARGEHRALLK
T6 sequence (Q96SW2 whole entry): as the sequence (Q96SW2 whole entry) above
T6 sequence (Q16531 whole entry partner): as the sequence (Q16531 whole entry partner) above

MGC803 = experiment: Tumor cell proliferation inhibition (CellTiter-Meiluncell Luminescent Cell Viability Assay), MGC803; settings: Homo sapiens, MGC-803, 96 h, read-out: inhibitory activity (IC50, nM) against tumor cells proliferation, MGC803
[2] = molecular target: T7, human Cereblon WT GST-tagged protein (Homo sapiens, UniProt Q96SW2); experiment: CRBN-binding affinity by HTRF (CEREBLON BINDING kit); settings: HTRF inhibitory activity, CEREBLON BINDING kit; read-out: HTRF IC50
T7 construct: purchased CISBIO 64BDCRBNPEH
T7 sequence (Q96SW2 whole entry): as the sequence (Q96SW2 whole entry) above

[3] = tested on: Human acute T lymphocytic leukemia cells (Molt-4); experiment: Tumor cell proliferation inhibition (CellTiter-Meiluncell Luminescent Cell Viability Assay), Molt-4; settings: MOLT-4, 96 h, read-out: inhibitory activity (IC50, nM) against tumor cells proliferation, Molt 4
Experimental: as §1, §2, §3

Jurkat = experiment: Tumor cell proliferation inhibition (CellTiter-Meiluncell Luminescent Cell Viability Assay), Jurkat; settings: Homo sapiens, 96 h, read-out: inhibitory activity (IC50, nM) against tumor cells proliferation, Jurkat
TMD8 = experiment: Tumor cell proliferation inhibition (CellTiter-Meiluncell Luminescent Cell Viability Assay), TMD8; settings: Homo sapiens, TMD8, 96 h, read-out: inhibitory activity (IC50, nM) against tumor cells proliferation, TMD8
Experimental: as §1, §2, §3

| Structure (SMILES) | IC50 (CCRF-CEM) [nM] | IC50 [1] [nM] | IC50 (CAL-62) [nM] | Weel substrate protein remaining % (WEE1) | IKZF 1 substrate protein remaining % (IKZF1) | IC50 (Vcap) [nM] | CK1a substrate protein remaining % (CK1α) | GSPT1 substrate protein remaining % (GSPT1) | IC50 (NCI-H1975) [nM] | IC50 (MM.1R) [nM] | IKZF2 substrate protein remaining % (IKZF2) | IC50 (SW620) [nM] | IC50 (SR) [nM] | IKZF3 substrate protein remaining % (IKZF3) | IC50 (MGC803) [nM] | IC50 [2] [nM] | IC50 [3] [nM] | IC50 (Jurkat) [nM] | IC50 (TMD8) [nM] |
| --- | --- | --- | --- | --- | --- | --- | --- | --- | --- | --- | --- | --- | --- | --- | --- | --- | --- | --- | --- |
| Cc1ccc(N2CCN(Cc3ccc4c(c3)CN(C3CCC(=O)NC3=O)C4=O)CC2)cc1 (stereo not shown) [GT-04463, 3-(1-oxo-5-((4-(p-tolyl)piperazin-1-yl)methyl)isoindolin-2-yl)piperidine-2,6-dione] | 5 to 10 | 100 to 500 | 10 to 50 | A (0% ≤ substrate protein remaining % ≤ 80%) | A (0% ≤ substrate protein remaining % ≤ 80%) | 10 to 50 | A (0% ≤ substrate protein remaining % ≤ 80%) | A (0% ≤ substrate protein remaining % ≤ 80%) | 100 to 500 | 5 to 10 | A (0% ≤ substrate protein remaining % ≤ 80%) | 100 to 500 | 500 to 1000 | A (0% ≤ substrate protein remaining % ≤ 80%) | 100 to 500 | 1000 to 1500 | 5 to 10 | 5 to 10 | – |
| O=C1CCC(N2Cc3cc(CN4CCC(c5cccc(C(F)(F)F)c5)CC4)ccc3C2=O)C(=O)N1 (stereo not shown) [GT-04472, 3-(1-oxo-5-((4-(3-(trifluoromethyl)phenyl)piperidin-1-yl)methyl)isoindolin-2-yl)piperidine-2,6-dione] | 1 to 5 | – | 5 to 10 | A (0% ≤ substrate protein remaining % ≤ 80%) | A (0% ≤ substrate protein remaining % ≤ 80%) | 10 to 50 | B (80%< substrate protein remaining %≤ 100%) | A (0% ≤ substrate protein remaining % ≤ 80%) | 10 to 50 | 1 to 5 | A (0% ≤ substrate protein remaining % ≤ 80%) | 10 to 50 | 50 to 100 | A (0% ≤ substrate protein remaining % ≤ 80%) | 50 to 100 | 500 to 1000 | 1 to 5 | 1 to 5 | – |
| O=C1CCC(N2Cc3cc(CN4CCC(c5ccccc5Cl)CC4)ccc3C2=O)C(=O)N1 (stereo not shown) [GT-04468, 3-(5-((4-(2-chlorophenyl)piperidin-1-yl)methyl)-1-oxoisoindolin-2-yl)piperidine-2,6-dione] | 5 to 10 | – | 10 to 50 | A (0% ≤ substrate protein remaining % ≤ 80%) | A (0% ≤ substrate protein remaining % ≤ 80%) | 50 to 100 | A (0% ≤ substrate protein remaining % ≤ 80%) | A (0% ≤ substrate protein remaining % ≤ 80%) | 100 to 500 | 10 to 50 | A (0% ≤ substrate protein remaining % ≤ 80%) | 100 to 500 | 500 to 1000 | A (0% ≤ substrate protein remaining % ≤ 80%) | 500 to 1000 | 500 to 1000 | 5 to 10 | 5 to 10 | – |
| O=C1CCC(N2Cc3cc(CN4CCC(c5ccccc5F)CC4)ccc3C2=O)C(=O)N1 (stereo not shown) [GT-04470, 3-(5-((4-(2-fluorophenyl)piperidin-1-yl)methyl)-1-oxoisoindolin-2-yl)piperidine-2,6-dione] | 10 to 50 | – | 10 to 50 | A (0% ≤ substrate protein remaining % ≤ 80%) | A (0% ≤ substrate protein remaining % ≤ 80%) | 50 to 100 | A (0% ≤ substrate protein remaining % ≤ 80%) | A (0% ≤ substrate protein remaining % ≤ 80%) | 500 to 1000 | 10 to 50 | A (0% ≤ substrate protein remaining % ≤ 80%) | 100 to 500 | 500 to 1000 | A (0% ≤ substrate protein remaining % ≤ 80%) | 100 to 500 | 500 to 1000 | 10 to 50 | 5 to 10 | – |
| Cc1ccsc1C1=CCN(Cc2ccc3c(c2)CN(C2CCC(=O)NC2=O)C3=O)CC1 (stereo not shown) [GT-04495, 3-(5-((4-(3-methylthiophen-2-yl)-3,6-dihydropyridin-1(2H)-yl)methyl)-1-oxoisoindolin-2-yl)piperidine-2,6-dione] | < 1 | 1 to 5 | < 1 | B (80%< substrate protein remaining %≤ 100%) | B (80%< substrate protein remaining %≤ 100%) | 1 to 5 | A (0% ≤ substrate protein remaining % ≤ 80%) | A (0% ≤ substrate protein remaining % ≤ 80%) | 1 to 5 | – | A (0% ≤ substrate protein remaining % ≤ 80%) | 1 to 5 | 1 to 5 | B (80%< substrate protein remaining %≤ 100%) | 10 to 50 | < 500 | < 1 | < 1 | – |
| O=C1CCC(N2Cc3cc(CN4CCN(c5cccc6sccc56)CC4)ccc3C2=O)C(=O)N1 (stereo not shown) [GT-04202, 3-(5-((4-(benzo[b]thiophen-4-yl)piperazin-1-yl)methyl)-1-oxoisoindolin-2-yl)piperidine-2,6-dione] | 1 to 5 | – | 1 to 5 | A (0% ≤ substrate protein remaining % ≤ 80%) | A (0% ≤ substrate protein remaining % ≤ 80%) | 1 to 5 | A (0% ≤ substrate protein remaining % ≤ 80%) | A (0% ≤ substrate protein remaining % ≤ 80%) | – | – | A (0% ≤ substrate protein remaining % ≤ 80%) | 1 to 5 | – | A (0% ≤ substrate protein remaining % ≤ 80%) | 10 to 50 | 500 to 1000 | – | 1 to 5 | 10 to 50 |

Reference: EP4745137A1 (Gluetacs Therapeutics (Shanghai) Co., Ltd., priority 2023, dated 2025)
